Columns and labels:
[1] = test system: ATF4 in CCRF-CEM leukemia cells (PERK); experiment: CCRF-CEM TG ATF4 ELISA, phenotypic assay for cellular inhibition of PERK preactivated by thapsigargin; assay type: cell-based; conditions: Homo sapiens; Thapsigargin (1 μM) stimulated CCRF-CEM cells
Description: CCRF-CEM leukemia cells (catalog #CCL-116) were obtained from the American Type Culture Collection (ATTC, Manassas, VA). Briefly, cells were grown in RPMI-1640 medium supplemented with 10% heat-inactivated fetal bovine serum (Invitrogen, Carlsbad, CA) and 1% Penicillin/Streptomycin/L-Glutamine at 37° C., 5% CO2, and 95% humidity. Cells were expanded until reaching one million cells per mL at which time they were subcultured or harvested for assay use. One million five hundred thousand cells per well in 1 mL complete growth medium were dispensed into 12-well plates and incubated overnight. A serial dilution of test compound was added and cells were incubated at 37° C., 5% CO2, and 95% for three hours, then 1 μM thapsigargin was added and cells were incubated for an additional hour at 37° C., 5% CO2, and 95%. Cells were lysed then ATF4 levels were measured using an ELISA assay (Proteintech, Rosemont, IL). Absorbance was measured at 450 nm and 544 nM using a Synergy2 or equivalent reader (Biotek, Winooski VT). Data was analyzed using PRISM software (Graphpad, San Diego, CA) to calculate IC50 values.

PERK kinase = PERK kinase (Homo sapiens (Human), UniProt Q9NZJ5); experiment: Biochemical assay for PERK (coupled pyruvate kinase/lactate dehydrogenase assay); conditions: 1 mM ATP, rate from 2-3 h time frame
Description: Activity of PERK kinase was determined spectroscopically using a coupled pyruvate kinase/lactate dehydrogenase assay that continuously monitors the ATP hydrolysis-dependent oxidation of NADH (e.g., Schindler et al. Science (2000) 289: 1938-1942). Assays were conducted in 384-well plates (100 μL final volume) using 10 nM PERK (from Beryllium), 0.25 mg/mL Myelin Basic Protein substrate, 1.5 units pyruvate kinase, 2.1 units lactate dehydrogenase, 1 mM phosphoenol pyruvate, 0.28 mM NADH and 1 mM ATP in assay buffer (100 mM Tris, pH 7.5, 15 mM MgCl2, 0.5 mM DTT, 0.004% (w/v) BSA, and 0.004% Triton X-100). Inhibition of PERK was measured by adding serial diluted test compound (final assay concentration of 1% DMSO). A decrease in absorption at 340 nm was monitored continuously for 6 hours at 30° C. on a multi-mode microplate reader (BioTek). The reaction rate was calculated using the 2-3 h time frame. The reaction rate at each concentration of compound was converted to percent inhibition using controls (i.e. reaction with no test compound and reaction with a known inhibitor) and IC50 values were calculated using software routines in Prism (GraphPad software).

GCN2 kinase = GCN2 kinase (Homo sapiens (Human), UniProt Q9P2K8); experiment: Biochemical assay for GCN2 (TR-FRET kinase activity assay); conditions: 1 mM ATP, 3-hour incubation
Description: Activity of GCN2 kinase was determined using a TR-FRET kinase activity assay (e.g. Riddle et al. Analytical Biochemistry (2006) 356(1) 108-116). Assays were conducted in 384-well plates (13 μL assay volume) using 2 nM GCN2 (Carna Biosciences), 130 nM GFP-EIf2α (Invitrogen), 0.2 mg/mL E. coli tRNA (sigma) and 1 mM ATP in kinase buffer (Invitrogen). Inhibition of GCN2 was measured by adding serial diluted test compound (final assay concentration of 0.5% DMSO) followed by a 3-hour incubation. Tb-peIF2α (pSer52) antibody (Invitrogen) (2 nM final assay concentration) in kinase buffer containing ETDA (final assay concentration of 20 mM) was added. After a 60 min incubation at room temperature, TR-FRET was monitored using an excitation wavelength of 340 nm and emission wavelengths of 490 nm and 520 nm. The emission ratio (520/490) at each compound concentration of was converted to percent inhibition using controls (i.e. reaction with no test compound and reaction with a known inhibitor) and IC50 values were calculated by fitting a four-parameter sigmoidal curve to the data using Prism (GraphPad software).

CCRF-CEM leukemia cells = experiment: CCRF-CEM ASNase cell proliferation assay, phenotypic assay for cellular inhibition of GCN2; assay type: cell-based; conditions: Homo sapiens; ASNase treated CCRF-CEM cells, 1 mU/mL ASNase, 72 h
Description: CCRF-CEM leukemia cells (catalog #CCL-116) were obtained from the American Type Culture Collect (ATTC, Manassas, VA). Cells were grown in RPMI-1640 medium supplemented with 10% heat-inactivated fetal bovine serum (Invitrogen, Carlsbad, CA) and 1% Penicillin/Streptomycin/L-Glutamine at 37° C., 5% CO2, and 95% humidity. Cells were expanded until reaching one million cells per mL at which time they are subcultured or harvested for assay use. Ten thousand cells per well in 200 μL RPMI-1640 supplemented with 10% heat-inactivated fetal bovine serum and 1% Penicillin/Streptomycin were dispensed into a 96-well black clear bottom plate. A serial dilution of test compound and 1 mU/mL ASNase was added in triplicate and plates were incubated for 72 h at 37° C., 5% CO2, and 95% humidity. At the end of the incubation, 40 μL of a […] solution of resazurin (Sigma, St. Louis, MO) in PBS was added to each well of the plate and plates were incubated for an additional 6 h at 37° C., 5% CO2, and 95% humidity. Plates were read on a Synergy2 or equivalent reader (Biotek, Winooski VT) using an excitation of 540 nm and an emission of 600 nm. Data was analyzed using GraphPad Prism software (GraphPad, San Diego, CA) to calculate IC50 values.

GCN2 kinase, sequence (Q9P2K8 whole entry): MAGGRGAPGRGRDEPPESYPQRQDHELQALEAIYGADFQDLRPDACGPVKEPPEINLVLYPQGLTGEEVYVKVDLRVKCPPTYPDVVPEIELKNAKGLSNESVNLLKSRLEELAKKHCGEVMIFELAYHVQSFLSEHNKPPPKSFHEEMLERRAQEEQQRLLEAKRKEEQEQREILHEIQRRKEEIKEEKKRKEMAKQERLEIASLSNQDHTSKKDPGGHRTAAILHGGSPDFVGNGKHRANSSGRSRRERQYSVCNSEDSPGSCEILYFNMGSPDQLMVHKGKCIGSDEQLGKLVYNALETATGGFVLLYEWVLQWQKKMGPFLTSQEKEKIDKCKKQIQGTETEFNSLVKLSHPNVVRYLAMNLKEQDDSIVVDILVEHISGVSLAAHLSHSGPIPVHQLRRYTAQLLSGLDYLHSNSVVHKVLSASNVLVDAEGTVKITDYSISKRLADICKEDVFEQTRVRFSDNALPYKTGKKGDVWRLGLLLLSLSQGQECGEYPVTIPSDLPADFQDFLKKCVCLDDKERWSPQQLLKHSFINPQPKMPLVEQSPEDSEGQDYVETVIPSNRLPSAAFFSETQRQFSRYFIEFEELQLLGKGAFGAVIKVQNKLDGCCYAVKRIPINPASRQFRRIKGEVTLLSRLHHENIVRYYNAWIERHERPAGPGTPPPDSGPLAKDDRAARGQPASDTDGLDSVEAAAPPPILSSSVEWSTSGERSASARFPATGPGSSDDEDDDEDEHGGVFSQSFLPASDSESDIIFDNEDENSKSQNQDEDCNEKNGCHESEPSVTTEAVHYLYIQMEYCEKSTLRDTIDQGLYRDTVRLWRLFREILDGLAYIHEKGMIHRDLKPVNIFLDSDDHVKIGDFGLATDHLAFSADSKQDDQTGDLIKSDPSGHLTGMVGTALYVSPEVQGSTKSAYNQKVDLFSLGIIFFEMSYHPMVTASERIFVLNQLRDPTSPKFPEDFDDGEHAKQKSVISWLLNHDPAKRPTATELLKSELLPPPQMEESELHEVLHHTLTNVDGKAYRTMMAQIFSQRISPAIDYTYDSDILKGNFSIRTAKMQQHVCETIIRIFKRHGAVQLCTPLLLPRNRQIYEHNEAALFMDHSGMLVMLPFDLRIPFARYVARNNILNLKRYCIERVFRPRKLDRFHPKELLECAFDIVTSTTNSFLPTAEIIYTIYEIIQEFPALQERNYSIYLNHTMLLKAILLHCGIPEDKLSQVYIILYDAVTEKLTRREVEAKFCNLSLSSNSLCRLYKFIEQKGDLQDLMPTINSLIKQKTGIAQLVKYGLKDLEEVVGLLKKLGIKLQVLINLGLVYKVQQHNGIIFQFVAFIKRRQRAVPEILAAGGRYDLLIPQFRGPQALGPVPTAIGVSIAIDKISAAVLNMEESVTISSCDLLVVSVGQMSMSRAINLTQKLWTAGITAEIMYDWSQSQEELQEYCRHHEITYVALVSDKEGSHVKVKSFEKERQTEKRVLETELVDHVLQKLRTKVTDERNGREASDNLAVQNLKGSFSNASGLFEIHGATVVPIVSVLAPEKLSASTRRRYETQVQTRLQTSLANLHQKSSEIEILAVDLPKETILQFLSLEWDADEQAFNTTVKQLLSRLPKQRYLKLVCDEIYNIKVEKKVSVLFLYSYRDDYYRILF
PERK kinase, sequence (Q9NZJ5 other isoform, or with tags, fused parts or gaps): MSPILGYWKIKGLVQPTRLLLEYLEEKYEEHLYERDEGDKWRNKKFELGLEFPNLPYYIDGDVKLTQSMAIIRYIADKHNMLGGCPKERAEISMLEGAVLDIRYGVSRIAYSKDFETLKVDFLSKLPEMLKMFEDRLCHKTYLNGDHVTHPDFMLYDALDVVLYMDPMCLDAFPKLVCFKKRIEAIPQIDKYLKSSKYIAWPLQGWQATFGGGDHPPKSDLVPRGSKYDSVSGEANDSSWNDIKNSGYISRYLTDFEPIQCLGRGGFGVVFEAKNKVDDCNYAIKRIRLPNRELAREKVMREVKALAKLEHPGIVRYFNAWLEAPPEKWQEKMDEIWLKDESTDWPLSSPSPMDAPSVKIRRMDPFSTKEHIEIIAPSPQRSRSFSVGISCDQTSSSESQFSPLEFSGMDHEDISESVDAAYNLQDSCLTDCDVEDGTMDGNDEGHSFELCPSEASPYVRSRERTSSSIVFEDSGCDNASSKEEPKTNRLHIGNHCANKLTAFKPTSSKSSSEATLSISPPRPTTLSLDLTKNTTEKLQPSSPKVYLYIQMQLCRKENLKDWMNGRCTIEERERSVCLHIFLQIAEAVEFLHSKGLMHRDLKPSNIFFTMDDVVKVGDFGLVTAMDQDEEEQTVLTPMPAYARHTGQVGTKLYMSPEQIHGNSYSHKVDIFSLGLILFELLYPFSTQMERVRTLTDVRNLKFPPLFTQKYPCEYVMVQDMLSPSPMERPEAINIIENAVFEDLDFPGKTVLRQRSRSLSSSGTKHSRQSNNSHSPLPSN

Q: Which results are given for `CNc1cc2ncc(-c3cccc(NS(=O)(=O)c4cc(Cl)cc(CO)c4Cl)c3F)cc2cn1` [Example 4, 2,5-dichloro-N-(2-fluoro-3-(7-(methylamino)-1,6-naphthyridin-3-yl)phenyl)-3-(hydroxymethyl)benzenesulfonamide]?
A: IC50 [1]: ≤ 100 nM; IC50 (PERK kinase): ≤ 100 nM; IC50 (GCN2 kinase): ≤ 100 nM; IC50 (CCRF-CEM leukemia cells): 1000 to 10000 nM

Q: What does the source list for `CNCCNc1nc2nc(NC)ncc2cc1-c1cccc(NS(=O)(=O)c2cc(Cl)cnc2OC)c1F` [Example 101]?
A: IC50 (PERK kinase): 1000 to 10000 nM; IC50 (GCN2 kinase): 100 to 500 nM

Q: `CNc1ncc2cc(-c3cc(F)cc(NS(=O)(=O)c4cc(Cl)cnc4OC)c3)c(OC)nc2n1` [Example 103] was tested. Which IC50 (PERK kinase) did it give?
A: The IC50 was 100 to 500 nM.

Q: And the IC50 (GCN2 kinase)?
A: Its IC50 is 100 to 500 nM.

Q: `CNc1nc2nc(N)ncc2cc1-c1cc(Cl)cc(NS(=O)(=O)c2cc(Cl)cnc2OC)c1` [Example 104] was tested. Which IC50 (PERK kinase) did it give?
A: The IC50 was 1000 to 10000 nM.

Q: What about the IC50 (GCN2 kinase) of the same compound?
A: The IC50 was 1000 to 10000 nM.

Q: With `CNc1ncc2cc(-c3cc(F)cc(NS(=O)(=O)c4cc(Cl)cnc4OC)c3)c(NCCOC)nc2n1` [Example 105] as the compound, how does the IC50 (PERK kinase) read?
A: The IC50 was 1000 to 10000 nM.

Q: What about the IC50 (GCN2 kinase) of the same compound?
A: Its IC50 is 100 to 500 nM.

Q: How did the IC50 (PERK kinase) turn out when `CNc1ncc2cc(-c3cc(F)cc(NS(=O)(=O)c4cc(Cl)cnc4OC)c3)c(NC[C@@H](C)OC)nc2n1` [Example 107] was run?
A: The IC50 was 1000 to 10000 nM.

Q: And the IC50 (GCN2 kinase)?
A: Its IC50 is 500 to 1000 nM.

Q: How did the IC50 (PERK kinase) turn out when `CNc1ncc2cc(-c3cc(F)cc(NS(=O)(=O)c4cc(Cl)cnc4OC)c3)c(NC[C@H](C)OC)nc2n1` [Example 108] was run?
A: Its IC50 is 1000 to 10000 nM.

Q: What about the IC50 (GCN2 kinase) of the same compound?
A: The IC50 was 500 to 1000 nM.

Q: Which results are given for `CNc1ncc2cc(-c3cccc(NS(=O)(=O)c4cc(Cl)cc(C(N)=O)c4Cl)c3F)c(NC)nc2n1` [Example 112]?
A: IC50 (PERK kinase): 1000 to 10000 nM; IC50 (GCN2 kinase): 1000 to 10000 nM

Q: Which IC50 (PERK kinase) does the source give for `CNc1nc2nc(NCC(F)(F)F)ncc2cc1-c1cccc(NS(=O)(=O)c2cc(Cl)cnc2OC)c1F` [Example 116] here?
A: The IC50 was 100 to 500 nM.

Q: What about the IC50 (GCN2 kinase) of the same compound?
A: The IC50 was at most 100 nM.

Q: How did the IC50 (PERK kinase) turn out when `CNc1nc2nc(NC3CCC3)ncc2cc1-c1cccc(NS(=O)(=O)c2cc(Cl)cnc2OC)c1F` [Example 118] was run?
A: Its IC50 is 100 to 500 nM.

Q: And the IC50 (GCN2 kinase)?
A: The IC50 was at most 100 nM.

Q: Which IC50 (PERK kinase) does the source give for `CNc1nc2nc(NC3CCCC3)ncc2cc1-c1cccc(NS(=O)(=O)c2cc(Cl)cnc2OC)c1F` [Example 119] here?
A: Its IC50 is 100 to 500 nM.

Q: What about the IC50 (GCN2 kinase) of the same compound?
A: Its IC50 is at most 100 nM.

Q: Which results are given for `CNc1ncc2cc(-c3cccc(NS(=O)(=O)c4cc(F)cnc4OC)c3F)c(NC)nc2n1` [Example 122]?
A: IC50 (PERK kinase): 100 to 500 nM; IC50 (GCN2 kinase): ≤ 100 nM

Q: With `CNc1ncc2cc(-c3cccc(NS(=O)(=O)c4cc(Cl)cnc4OC4COC4)c3F)c(NC)nc2n1` [Example 125] as the compound, how does the IC50 (PERK kinase) read?
A: The IC50 was 500 to 1000 nM.

Q: What about the IC50 (GCN2 kinase) of the same compound?
A: The IC50 was 100 to 500 nM.

Q: For `COc1cc(OC)c(S(=O)(=O)Nc2cccc(-c3cc4cnc(N)nc4nc3OC)c2F)cc1Cl` [Example 126], which IC50 (PERK kinase) is on record?
A: Its IC50 is 500 to 1000 nM.

Q: What about the IC50 (GCN2 kinase) of the same compound?
A: Its IC50 is 1000 to 10000 nM.

Q: `CNc1ncc2cc(-c3cccc(NS(=O)(=O)c4cc(C(C)=O)ccc4Cl)c3F)c(NC)nc2n1` [Example 133] was tested. Which IC50 (PERK kinase) did it give?
A: Its IC50 is 100 to 500 nM.

Q: What about the IC50 (GCN2 kinase) of the same compound?
A: Its IC50 is 100 to 500 nM.

Q: `CNc1ncc2cc(-c3cccc(NS(=O)(=O)c4ccc(Cl)nc4OC)c3F)c(NC)nc2n1` [Example 142] was tested. Which IC50 (PERK kinase) did it give?
A: Its IC50 is 100 to 500 nM.

Q: And the IC50 (GCN2 kinase)?
A: The IC50 was 100 to 500 nM.

Q: With `CNc1ncc2cc(-c3ccnc(NS(=O)(=O)c4cc(Cl)cnc4OC)c3F)c(NC)nc2n1` [Example 144] as the compound, how does the IC50 (PERK kinase) read?
A: The IC50 was 100 to 500 nM.

Q: What about the IC50 (GCN2 kinase) of the same compound?
A: Its IC50 is 100 to 500 nM.

Q: `CNc1ncc2cc(-c3cccc(NS(=O)(=O)c4cc(C#N)ccc4OC)c3F)c(NC)nc2n1` [Example 145] was tested. Which IC50 (PERK kinase) did it give?
A: Its IC50 is 500 to 1000 nM.

Q: And the IC50 (GCN2 kinase)?
A: The IC50 was 100 to 500 nM.

From US11912668B2, “GCN2 and perk kinase inhibitors and methods of use thereof” (Deciphera Pharmaceuticals, LLC, priority 2020, dated 2024)
